{
  "source": "patent US10464890B2",
  "about": "“PGAM1 inhibitors and methods related thereto” (Emory University, priority 2011, dated 2019)",
  "key": {"[1]": {"biological_target": "T1, 6PGD (Homo sapiens, UniProt P52209)", "T1 sequence (P52209 1-483)": "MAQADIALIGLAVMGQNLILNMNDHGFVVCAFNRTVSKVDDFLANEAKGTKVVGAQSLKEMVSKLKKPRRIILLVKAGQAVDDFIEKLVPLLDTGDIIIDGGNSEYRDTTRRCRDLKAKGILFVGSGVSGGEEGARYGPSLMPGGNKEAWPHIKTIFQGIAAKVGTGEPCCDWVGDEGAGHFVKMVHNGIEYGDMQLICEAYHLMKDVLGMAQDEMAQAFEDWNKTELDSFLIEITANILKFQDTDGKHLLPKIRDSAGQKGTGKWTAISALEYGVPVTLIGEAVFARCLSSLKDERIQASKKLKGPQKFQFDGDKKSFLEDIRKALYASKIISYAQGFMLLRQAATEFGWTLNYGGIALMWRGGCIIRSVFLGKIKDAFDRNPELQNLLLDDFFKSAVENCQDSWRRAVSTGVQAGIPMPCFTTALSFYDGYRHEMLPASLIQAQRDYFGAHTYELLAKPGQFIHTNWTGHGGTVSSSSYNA", "assay_type": "binding", "experimental": "In brief, thermal shift assay of compound-protein interaction was performed in 384-well PCR plates with various compound concentrations and 200 μg/ml protein in a buffer solution (20 mM Tris-HCl, 100 mM NaCl, pH 7.4). SYPRO orange was used as a dye to monitor the fluorescence change at 610 nm. Small molecules were dissolved in DMSO and added to protein solution. Final DMSO concentration of solution is 1%. Dissociation constants (Kds) for protein-ligand interaction were calculated using the method as described.\nThe fluorescence intensity data were fitted to Eq. (1) to obtain ΔHu, ΔCpu, and Tm by nonlinear regression using the program Prism:\nThe thermal unfolding parameters for 6PGD and PGAM1 alone were determined from 4 control wells, each containing 0.2 mg/mL protein."}, "[2]": {"biological_target": "T2, 6PGD (H1299 cell lysates or recombinant 6PGD) (Homo sapiens, UniProt P52209)", "T2 construct": "endogenous in cells; host or cells: H1299 cell lysates; part of the results with recombinant 6PGD of unstated origin", "T2 sequence (P52209 1-483)": "T1 sequence (P52209 1-483)", "test": "6PGD enzyme assay", "assay_type": "biochemical", "experimental": "(§1) G6PD activity was determined by the NADPH production rate from G6PD and 6PGD, then subtracting that of 6PGD, since a product of G6PD, 6-phosphogluconolactone, is rapidly hydrolyzed to a substrate of 6PGD, 6-phosphogluconate, in cells. To obtain the combined dehydrogenase activity, substrates for both dehydrogenase enzymes were added to a cuvette. In another cuvette, substrates for the second enzyme, 6PGD, were added to obtain the activity of this enzyme. Substrate concentrations were as follows: 0.2 mM glucose 6-phosphate, 0.2 mM 6-phosphogluconate, and 0.1 mM NADP^+. 10 μg of cell lysates or 1 μg of recombinant protein were added to a cuvette containing buffer (50 mM Tris, 1 mM MgCl2, pH 8.1) and then the reaction was initiated by NADP^+. The increase of absorbance at 341 nm was measured by a DU800 spectrophotometer (Beckman)."}, "[3]": {"biological_target": "T3, G6PD (H1299 cell lysates or rG6PD) (Homo sapiens, UniProt P11413)", "T3 construct": "endogenous in cells; host or cells: H1299 cell lysates; also recombinant rG6PD of unstated origin", "T3 sequence (P11413 whole entry)": "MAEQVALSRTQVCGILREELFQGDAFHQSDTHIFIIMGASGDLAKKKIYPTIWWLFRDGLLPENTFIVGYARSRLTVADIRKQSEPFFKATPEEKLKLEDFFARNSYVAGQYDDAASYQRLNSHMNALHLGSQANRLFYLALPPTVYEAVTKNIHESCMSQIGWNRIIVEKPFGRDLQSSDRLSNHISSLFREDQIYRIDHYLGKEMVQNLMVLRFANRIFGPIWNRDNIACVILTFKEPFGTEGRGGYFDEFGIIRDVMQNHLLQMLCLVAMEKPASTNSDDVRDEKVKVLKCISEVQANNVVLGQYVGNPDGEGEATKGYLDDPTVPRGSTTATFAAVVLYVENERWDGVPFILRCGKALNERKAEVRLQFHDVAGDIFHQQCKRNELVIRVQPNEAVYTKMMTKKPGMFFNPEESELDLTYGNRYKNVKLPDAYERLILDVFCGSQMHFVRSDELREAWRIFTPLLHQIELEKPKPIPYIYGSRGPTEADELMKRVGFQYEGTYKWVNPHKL", "test": "G6PD enzyme assay", "assay_type": "biochemical", "settings": "increasing concentrations of 3-PG", "experimental": "as §1"}, "[4]": {"system": "Y26 phosphorylation of PGAM1", "test": "PGAM1 Y26 phosphorylation in human cancer cell lines", "assay_type": "cell-based", "settings": "pertinent human cancer cell lines (KG1a, HEL)"}, "[5]": {"biological_target": "T4, PHGDH (PGAM1 knockdown cell lysates or recombinant PHGDH) (Homo sapiens, UniProt O43175)", "T4 construct": "endogenous in cells; also recombinant rPHGDH of unstated origin", "T4 sequence (O43175 1-533)": "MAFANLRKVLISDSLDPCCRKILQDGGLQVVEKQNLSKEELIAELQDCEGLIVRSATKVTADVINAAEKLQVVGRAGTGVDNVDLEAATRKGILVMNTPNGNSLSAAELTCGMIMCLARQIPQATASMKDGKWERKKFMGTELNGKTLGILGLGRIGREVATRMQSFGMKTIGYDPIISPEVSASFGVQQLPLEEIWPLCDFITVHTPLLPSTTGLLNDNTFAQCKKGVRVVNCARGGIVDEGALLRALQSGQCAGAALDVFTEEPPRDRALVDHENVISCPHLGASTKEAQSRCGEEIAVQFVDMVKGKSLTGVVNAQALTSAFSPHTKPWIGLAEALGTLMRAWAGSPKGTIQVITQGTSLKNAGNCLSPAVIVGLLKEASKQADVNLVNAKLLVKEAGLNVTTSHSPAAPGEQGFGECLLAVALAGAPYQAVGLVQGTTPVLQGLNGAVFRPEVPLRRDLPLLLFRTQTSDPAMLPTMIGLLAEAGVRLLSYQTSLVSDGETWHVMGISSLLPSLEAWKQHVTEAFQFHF", "test": "PHGDH enzyme assay", "assay_type": "biochemical", "experimental": "PHGDH activity was spectrophotometrically measured as described previously. PHGDH enzyme buffer containing 200 mM Tris-HCl (pH8.1), 400 mM KCl, 0.6 mM NAD, 2 mM GSH, 10 mM EDTA was mixed with cell lysates or recombinant PHGDH protein. The reaction was initiated by the addition of 3-PG to a final concentration of 10 mM and followed by measuring the increase in absorbance at 340 nm over a 10 min period."}, "[6]": {"biological_target": "PGAM1 (Homo sapiens, UniProt P18669)", "sequence (P18669 whole entry)": "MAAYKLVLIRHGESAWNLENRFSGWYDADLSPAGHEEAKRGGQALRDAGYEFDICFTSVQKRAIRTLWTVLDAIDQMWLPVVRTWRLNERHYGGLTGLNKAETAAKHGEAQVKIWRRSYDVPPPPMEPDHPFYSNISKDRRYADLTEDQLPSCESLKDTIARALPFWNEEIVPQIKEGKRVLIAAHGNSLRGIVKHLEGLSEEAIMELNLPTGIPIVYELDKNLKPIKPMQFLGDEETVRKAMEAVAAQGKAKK", "settings": "cited from earlier work"}, "[7]": {"biological_target": "T5, purified human PGAM1 proteins (recombinant PGAM1) (Homo sapiens, UniProt P18669)", "T5 construct": "(His)6; made in house; host or cells: E. coli BL21(DE3)pLysS (pET53 vector)", "T5 sequence (P18669 whole entry)": "as above", "test": "In vitro PGAM1 enzyme assay (coupled enolase/PKM1/LDH, NADH oxidation)", "assay_type": "biochemical", "settings": "for screening outcome (PGAM1 primary screen, enolase secondary screen): library screen with coupled PGAM1 and enolase assays; for relative PGAM1 inhibitory potency in vitro: purified recombinant PGAM1, comparison among alizarin, alizarin Red S and PGMI-004A", "experimental": "An in vitro PGAM1 assay was performed as primary screening. PGAM1 enzyme mix was prepared containing 100 mM Tris-HCl, 100 mM KCl, 5 mM MgCl2, 1 mM ADP, 0.2 mM NADH, 5 mg/ml recombinant PGAM1, 0.5 units/ml enolase, 0.5 units/ml recombinant pyruvate kinase M1, and 0.1 units/ml recombinant LDH. 3-PG was added last at the final concentration of 2 mM to initiate the reaction. […] An in vitro enolase assay as secondary screening was also performed. Enolase enzyme mix was prepared containing 100 mM Tris-HCl, 100 mM KCl, 5 mM MgCl2, 1 mM ADP, 0.2 mM NADH, 0.5 units/ml enolase, 0.5 units/ml recombinant pyruvate kinase M1, and 0.1 units/ml recombinant LDH. 2-PG was added last at the final concentration of 2 mM to initiate the reaction. […] Assay was carried out in Tris-HCl buffer (10 mM Tris, pH 7.4, 100 mM NaCl) containing 5% DMSO.\nPGAM1 activity was measured by multiple enzymes coupled assay. PGAM1 enzyme mix containing 100 mM Tris-HCl, 100 mM KCl, 5 mM MgCl2, 1 mM ADP, 0.2 mM NADH, 5 mg/ml recombinant PGAM1, 0.5 units/ml enolase, 0.5 units/ml recombinant pyruvate kinase M1, and 0.1 units/ml recombinant LDH was prepared. 3-PG was added last at a final concentration of 2 mM to initiate the reaction."}, "[8]": {"system": "H1299 cells", "test": "Cell proliferation assay, H1299", "assay_type": "cell-based, human", "settings": "H1299 cells", "experimental": "(§2) For leukemia cell proliferation assay, 10×10^4 cells were seeded in non-tissue culture coated 6-well plate and incubated at 37° C. for indicated times. Cell numbers were counted by trypan blue exclusion under a microscope (×40) at indicated times and the percentage of cell proliferation was determined by comparing PGAM1 knockdown cells to pLKO.1 vector expressing cells. […] Cell viability was determined by counting drug-treated cells compared to DMSO-treated control cells with trypan blue exclusion under a microscope (×40) and by using CellTiter96Aqueous One solution proliferation kit (Promega). For adherent cell proliferation assay such as H1299 and MDA-MB231 cells, 5×10^4 cells were seeded in 6-well plate 24 h before the assay starts and were cultured at 37° C. 24 h after seeding, cells were treated with 5 μM Methyl-2PG and incubated at 37° C. for indicated times. Cell proliferation was determined by the increase in cell number indicated times after the treatment starts compared to that at the treatment starts for each cell line (T=0). Cell numbers were counted by trypan blue exclusion under a microscope (×40). For adherent cell viability assay with trypan blue exclusion, 5×10^4 cells were seeded in 6-well plate 24 h before the assay starts and were cultured at 37° C. […] Cell viability was determined by counting drug-treated cells compared to DMSO-treated control cells with trypan blue exclusion under a microscope (×40). For MTT cell viability assay of adherent cells, 5×10^3 cells were seeded in 96-well plate 24 h before the assay starts and were cultured at 37° C. […] Cell viability was determined by using CellTiter96Aqueous One solution proliferation kit (Promega)."}, "[9]": {"system": "human leukemia KG1a cells", "test": "Cell proliferation/viability assay, KG1a", "assay_type": "cell-based", "settings": "increasing concentrations (72h)", "experimental": "as §2, with “(×40).” for “(×40). For adherent cell viability assay with trypan blue exclusion, 5×10^4 cells were seeded in 6-well plate 24 h before the assay starts and were cultured at 37° C.”, “(×40).” for “(×40). For MTT cell viability assay of adherent cells, 5×10^3 cells were seeded in 96-well plate 24 h before the assay starts and were cultured at 37° C.”"}},
  "data": [
    {"smiles": "O=C(O)[C@H](O)COP(=O)(O)O", "note": "[3-PG, 3-phosphoglycerate]", "values": [
      {"measurement": "6PGD melting temperature (Tm)", "setting": "[1]; increasing concentrations, 100 μM to 25 mM", "result": "raises 6PGD melting temperature (Tm) in a dose-dependent manner"},
      {"measurement": "Kd", "setting": "[1]; read-out: Kd for interaction with 6PGD", "result": "460 ± 40", "unit": "µM"},
      {"measurement": "Ki", "setting": "[2]; Dixon plot, read-out: inhibition constant (Ki) for 6PGD", "result": "489 ± 13", "unit": "µM"},
      {"measurement": "mode of 6PGD inhibition", "setting": "[2]; Lineweaver-Burk plot, ~250 μM 3-PG, ~35 μM 6-PG", "result": "competitive inhibitor"},
      {"measurement": "6PGD enzyme activity", "setting": "[2]; ~60 μM 3-PG (physiological), H1299 cell lysates or recombinant 6PGD", "result": "do not significantly affect 6PGD enzyme activity"},
      {"measurement": "6PGD enzyme activity", "setting": "[2]; ~250 μM 3-PG, H1299 cell lysates or recombinant 6PGD", "result": "decreased enzyme activity of 6PGD"},
      {"measurement": "G6PD activity", "setting": "[3]", "result": "did not significantly affect G6PD activity"}
    ]},
    {"smiles": "N#C/C(=C/c1ccc(O)c(O)c1)C(=O)NCc1ccccc1", "note": "[AG490]", "values": [
      {"measurement": "Y26 phosphorylation of PGAM1", "setting": "[4]", "result": "decreased Y26 phosphorylation of PGAM1"}
    ]},
    {"smiles": "O=C(O)[C@@H](CO)OP(=O)(O)O", "note": "[2-PG, 2-phosphoglycerate]", "values": [
      {"measurement": "6PGD enzyme activity", "setting": "[2]; 2-PG treatment, H1299 cell lysates or r6PGD", "result": "did not affect 6PGD enzyme activity"},
      {"measurement": "enzyme activity of recombinant PHGDH (rPHGDH)", "setting": "[5]; increasing concentrations of 2-PG", "result": "increased enzyme activity of recombinant PHGDH"},
      {"measurement": "PHGDH activity", "setting": "[5]; ~15 μM 2-PG", "result": "did not significantly affect PHGDH activity"},
      {"measurement": "PHGDH enzyme activity", "setting": "[5]; ~45 μM or ~60 μM 2-PG, H1299 PGAM1 knockdown cell lysates", "result": "higher PHGDH enzyme activity"}
    ]},
    {"smiles": "C#CCCCC(=O)OC(C)(C)C1CCC2(CO2)C(OC(=O)NC(Cc2c[nH]c3ccccc23)C(=O)OCc2ccccc2)C1", "note": "(stereo not shown) [MJE3]", "values": [
      {"measurement": "PGAM1 activity (reported)", "setting": "[6]; Evans et al., 2007, 2005", "result": "specifically inhibits PGAM1 activity exclusively in intact cells"},
      {"measurement": "cancer cell proliferation (reported)", "setting": "[6]", "result": "attenuates cancer cell proliferation"}
    ]},
    {"smiles": "O=CC=Cc1ccc(O)cc1", "note": "[p-hydroxycinnamaldehyde]", "values": [
      {"measurement": "screening outcome (PGAM1 primary screen, enolase secondary screen)", "setting": "[7]", "result": "identified as PGAM1 inhibitors"}
    ]},
    {"smiles": "O=C1c2ccccc2C(=O)c2c1cc(S(=O)(=O)O)c(O)c2O", "note": "[alizarin Red S, 3,4-dihydroxy-9,10-dioxo-9,10-dihydroanthracene-2-sulfonic acid]", "values": [
      {"measurement": "relative PGAM1 inhibitory potency in vitro", "setting": "[7]", "result": "more potent PGAM1 inhibitory potential compared to alizarin"},
      {"measurement": "relative PGAM1 inhibitory potency in vitro", "setting": "[7]; listed as Alizarin Red S", "result": "more potent PGAM1 inhibitor"}
    ]},
    {"smiles": "O=C1c2ccccc2C(=O)c2c1ccc(O)c2O", "note": "[alizarin, 1,2-Dihydroxyanthraquinone]", "values": [
      {"measurement": "screening outcome (PGAM1 primary screen, enolase secondary screen)", "setting": "[7]", "result": "identified as PGAM1 inhibitors"},
      {"measurement": "cell proliferation", "setting": "[8]", "result": "decreased proliferation"},
      {"measurement": "cell proliferation", "setting": "[9]", "result": "decreased proliferation"}
    ]},
    {"smiles": "Oc1c(Cl)cc(Cl)c(Cl)c1Cc1c(O)c(Cl)cc(Cl)c1Cl", "note": "[hexachlorophene]", "values": [
      {"measurement": "screening outcome (PGAM1 primary screen, enolase secondary screen)", "setting": "[7]", "result": "identified as PGAM1 inhibitors"}
    ]},
    {"smiles": "CN1CCN(c2ccc3nc(-c4c(N)c5c(F)cccc5[nH]c4=O)[nH]c3c2)CC1", "note": "[TKI258]", "values": [
      {"measurement": "Y26 phosphorylation of PGAM1", "setting": "[4]", "result": "decreased Y26 phosphorylation of PGAM1"}
    ]}
  ]
}
